“And” between values parts separate entries of the source, which are not always exact repeats. Identical values can stand only once. Inconclusive results are not listed.

The experiment relates to C3AKF1 mice, hamster liver cystadenocarcinoma s.c., tumor weight T/C. Put plainly: NCI In Vivo Anticancer Drug Screen. Data for tumor model Cystadenocarcinoma, Liver (No. 1) (Hamster) (subcutaneous) in C3AKF1 (CHKRF1) mice. The following applies: endpoint: mean tumor weight, higher = larger tumour. As to the method:
The antitumor activity of compounds was measured in mice bearing transplantable tumors. Survival or tumor size were measured and the results are expressed as the measurement made in the treated group (T) divided by the measurement made in the vehicle treated control group (C). The tumor model used in this assay is Cystadenocarcinoma, Liver (No. 1) (Hamster) (subcutaneous) in C3AKF1 (CHKRF1) mice

Where [1] appears, read: dose: 15.0 mg/kg/injection, schedule: Q01DX010 (ip), vehicle: carboxymethylcellulose (CMC).
Setting [2] is: dose: 30.0 mg/kg/injection, schedule: Q01DX010 (ip), vehicle: carboxymethylcellulose (CMC).
Where [3] appears, read: dose: 60.0 mg/kg/injection, schedule: Q01DX010 (ip), vehicle: carboxymethylcellulose (CMC).
Where [4] appears, read: dose: 25.0 mg/kg/injection, schedule: Q01DX010 (ip), vehicle: carboxymethylcellulose (CMC).
Where [5] appears, read: dose: 50.0 mg/kg/injection, schedule: Q01DX010 (ip), vehicle: carboxymethylcellulose (CMC).
The mark [6] stands for this setting: dose: 125.0 mg/kg/injection, schedule: Q01DX010 (ip), vehicle: carboxymethylcellulose (CMC).
Where [7] appears, read: dose: 37.5 mg/kg/injection, schedule: Q01DX010 (ip), vehicle: carboxymethylcellulose (CMC).
Where [8] appears, read: dose: 100.0 mg/kg/injection, schedule: Q01DX010 (ip), vehicle: carboxymethylcellulose (CMC).
[9] abbreviates: dose: 0.5 mg/kg/injection, schedule: Q01DX010 (ip), vehicle: carboxymethylcellulose (CMC).
The mark [10] stands for this setting: dose: 1.0 mg/kg/injection, schedule: Q01DX010 (ip), vehicle: carboxymethylcellulose (CMC).
The mark [11] stands for this setting: dose: 7.0 mg/kg/injection, schedule: Q01DX010 (ip), vehicle: carboxymethylcellulose (CMC).
Where [12] appears, read: dose: 50.0 mg/kg/injection, schedule: Q01DX010 (ip), vehicle: saline.
Setting [13] is: dose: 100.0 mg/kg/injection, schedule: Q01DX010 (ip), vehicle: saline.
The mark [14] stands for this setting: dose: 10.0 mg/kg/injection, schedule: Q01DX010 (ip), vehicle: carboxymethylcellulose (CMC).
The mark [15] stands for this setting: dose: 20.0 mg/kg/injection, schedule: Q01DX010 (ip), vehicle: carboxymethylcellulose (CMC).
[16] abbreviates: dose: 40.0 mg/kg/injection, schedule: Q01DX010 (ip), vehicle: carboxymethylcellulose (CMC).

For the molecule `CC(=O)Nc1ccc(NC(=O)c2ccc([As](O)O)cc2)cc1`, the T/C runs as follows: under setting [1], 60 % of control; under setting [2], 77 % of control; under setting [3], 92 % of control; (dose: 120.0 mg/kg/injection, schedule: Q01DX010 (ip), vehicle: carboxymethylcellulose (CMC)) 91 % of control.

On to `O=C1N(Cl)C(=O)C(c2ccc(Cl)cc2)(c2ccc(Cl)cc2)N1Cl`, for which the T/C is, setting by setting: under setting [1], 67 % of control; under setting [2], 85 % of control; under setting [3], 61 % of control.

Regarding `COC(=O)[C@@H]1c2cc3c(c(O)c2[C@@H](OC2OC(C)C(OC)C(C)(OC)C2OC)C[C@]1(C)O)C(=O)c1c(O)cc2c(c1C3=O)O[C@H]1O[C@]2(C)[C@H](O)[C@@H](N(C)C)[C@@H]1O` (some centres undefined), the T/C (dose: 0.25 mg/kg/injection, schedule: Q01DX010 (ip), vehicle: saline) is 103 % of control.

For the molecule `O=C(NO)c1ccncc1`, the T/C is, setting by setting: (dose: 250.0 mg/kg/injection, schedule: Q01DX010 (ip), vehicle: saline) 80 % of control; (dose: 500.0 mg/kg/injection, schedule: Q01DX010 (ip), vehicle: saline) 78 % of control; (dose: 750.0 mg/kg/injection, schedule: Q01DX010 (ip), vehicle: saline) 76 % of control.

Take `Cc1ccc(N=NN(C)C)cc1`: the T/C is 96 % of control under setting [4] and 93 % of control under setting [5].

Turning to `Cc1cc(N)c2cc(NC(=O)CCCCCCCCC(=O)Nc3ccc4nc(C)cc(N)c4c3)ccc2n1`, the T/C was 68 % of control (dose: 31.0 mg/kg/injection, schedule: Q01DX010 (ip), vehicle: carboxymethylcellulose (CMC)); 50 % of control (dose: 62.0 mg/kg/injection, schedule: Q01DX010 (ip), vehicle: carboxymethylcellulose (CMC)); 38 % of control under setting [6].

`O=C(C[N+]12CN3CN(CN(C3)C1)C2)c1ccc(Cl)cc1`: the T/C is, setting by setting: under setting [7], 99 % of control; (dose: 75.0 mg/kg/injection, schedule: Q01DX010 (ip), vehicle: carboxymethylcellulose (CMC)) 109 % of control; (dose: 150.0 mg/kg/injection, schedule: Q01DX010 (ip), vehicle: carboxymethylcellulose (CMC)) 90 % of control; (dose: 300.0 mg/kg/injection, schedule: Q01DX010 (ip), vehicle: carboxymethylcellulose (CMC)) 69 % of control.

As for `CSc1ncnc2c1ncn2C1CCCO1` (centres undefined), the T/C (dose: 12.0 mg/kg/injection, schedule: Q01DX010 (ip), vehicle: carboxymethylcellulose (CMC)) is 70 % of control; the T/C under setting [4] was 69 % of control; the T/C under setting [5] was 72 % of control and 79 % of control; the T/C under setting [8] is 63 % of control and 76 % of control.

For the molecule `COc1ccc(Nc2ccnc3cc(Cl)ccc23)cc1CN(CCCl)CCCl`, the T/C under setting [9] is 95 % of control; the T/C under setting [10] is 91 % of control; the T/C (dose: 2.0 mg/kg/injection, schedule: Q01DX010 (ip), vehicle: carboxymethylcellulose (CMC)) was 93 % of control; the T/C (dose: 4.0 mg/kg/injection, schedule: Q01DX010 (ip), vehicle: carboxymethylcellulose (CMC)) was 70 % of control.

For the molecule `CCCC(=O)NC1=C(N2CC2)C(=O)C(NC(=O)CCC)=C(N2CC2)C1=O`, the T/C is, setting by setting: (dose: 0.5 mg/kg/injection, schedule: Q01DX010 (ip), vehicle: saline) 69 % of control and 86 % of control; (dose: 0.75 mg/kg/injection, schedule: Q01DX010 (ip), vehicle: saline) 47 % of control and 49 % of control; (dose: 1.7 mg/kg/injection, schedule: Q01DX010 (ip), vehicle: saline) 32 % of control and 48 % of control; (dose: 2.6 mg/kg/injection, schedule: Q01DX010 (ip), vehicle: saline) 14 % of control.

On to `c1ccc2c(c1)ccc1cc3c(ccc4ccccc43)cc12`, for which the T/C by setting is: (dose: 62.5 mg/kg/injection, schedule: Q01DX010 (ip), vehicle: carboxymethylcellulose (CMC)) 64 % of control; under setting [6], 88 % of control; (dose: 250.0 mg/kg/injection, schedule: Q01DX010 (ip), vehicle: carboxymethylcellulose (CMC)) 86 % of control.

Take `CCCCn1cnc2c(=S)nc(N)[nH]c21`: the T/C by setting is: under setting [10], 82 % of control; under setting [11], 60 % of control and 77 % of control; under setting [1], 50 % of control; under setting [2], 49 % of control.

Consider `COc1ccccc1NC(=O)CSC(N)=O`, for which the T/C is, setting by setting: under setting [5], 92 % of control; under setting [8], 86 % of control; (dose: 200.0 mg/kg/injection, schedule: Q01DX010 (ip), vehicle: carboxymethylcellulose (CMC)) 95 % of control; (dose: 400.0 mg/kg/injection, schedule: Q01DX010 (ip), vehicle: carboxymethylcellulose (CMC)) 38 % of control.

For `CC(=O)NCCSC(=O)C(=O)SCCNC(C)=O`, the T/C reads like this: under setting [4], 72 % of control; under setting [5], 111 % of control; under setting [8], 65 % of control.

Consider `CS(=O)(=O)OCCCCCCCCCOS(C)(=O)=O`, for which the T/C reads like this: (dose: 8.0 mg/kg/injection, schedule: Q01DX010 (ip), vehicle: carboxymethylcellulose (CMC)) 99 % of control; (dose: 16.0 mg/kg/injection, schedule: Q01DX010 (ip), vehicle: carboxymethylcellulose (CMC)) 82 % of control.

Take `CC(C)(c1ccccc1)c1ccc(O)cc1`: the T/C under setting [7] was 79 % of control.

Regarding `O=C1NC2C(NC(=O)N2Cl)N1Cl` (centres undefined), the T/C (dose: 20.0 mg/kg/injection, schedule: Q01DX010 (ip), vehicle: saline) is 101 % of control.

Consider `CC(C)NCC(=O)c1ccc(O)c(O)c1`, for which the T/C is, setting by setting: under setting [12], 75 % of control; under setting [13], 59 % of control; (dose: 200.0 mg/kg/injection, schedule: Q01DX010 (ip), vehicle: saline) 90 % of control.

As to `CCN(CC)CCN1C(=O)c2cccc3cccc(c23)C1=O`, the T/C by setting is: (dose: 25.0 mg/kg/injection, schedule: Q01DX010 (ip), vehicle: saline) 90 % of control; under setting [12], 163 % of control; under setting [13], 109 % of control.

As for `NC(N)=N/N=C/C=N/N=C(N)N`, the T/C under setting [2] is 98 % of control.

In the case of `O=C(COc1cc(Cl)c(Cl)cc1Cl)OCCOc1cc(Cl)c(Cl)cc1Cl`, the T/C is, setting by setting: (dose: 11.25 mg/kg/injection, schedule: Q01DX010 (ip), vehicle: carboxymethylcellulose (CMC)) 88 % of control; (dose: 22.5 mg/kg/injection, schedule: Q01DX010 (ip), vehicle: carboxymethylcellulose (CMC)) 102 % of control; (dose: 45.0 mg/kg/injection, schedule: Q01DX010 (ip), vehicle: carboxymethylcellulose (CMC)) 87 % of control.

For the molecule `CCOC(=O)C(Cc1ccc(N(CCCl)CCCl)cc1)NC=O` (centres undefined), the T/C was 93 % of control under setting [14], 93 % of control under setting [15] and 55 % of control under setting [16].

With `CN(C)c1ccc(/C=C\c2ccnc3ccccc23)cc1`, the T/C is 98 % of control (dose: 1.25 mg/kg/injection, schedule: Q01DX010 (ip), vehicle: carboxymethylcellulose (CMC)); 95 % of control (dose: 2.5 mg/kg/injection, schedule: Q01DX010 (ip), vehicle: carboxymethylcellulose (CMC)); 96 % of control (dose: 5.0 mg/kg/injection, schedule: Q01DX010 (ip), vehicle: carboxymethylcellulose (CMC)); 88 % of control and 89 % of control under setting [14]; 67 % of control under setting [15].

Turning to `COC(=O)/C=C\C(=O)O` (tested in a mixture with another compound), the T/C is 105 % of control (dose: 3.5 mg/kg/injection, schedule: Q#A X020 (ip), vehicle: carboxymethylcellulose (CMC)); 49 % of control (dose: 7.5 mg/kg/injection, schedule: Q#A X020 (ip), vehicle: carboxymethylcellulose (CMC)); 38 % of control (dose: 15.0 mg/kg/injection, schedule: Q#A X020 (ip), vehicle: carboxymethylcellulose (CMC)).

Turning to `CCCCCCCCCCCC[n+]1cccc2ccccc21`, the T/C (dose: 0.25 mg/kg/injection, schedule: Q01DX010 (ip), vehicle: carboxymethylcellulose (CMC)) is 73 % of control; the T/C under setting [9] was 81 % of control; the T/C under setting [10] was 91 % of control.

Take `CN(C)Nc1ncnc2nc[nH]c12`: the T/C was 107 % of control under setting [15] and 102 % of control under setting [16].

As to `CCn1cnc2c(=S)nc(N)[nH]c21`, the T/C by setting is: (dose: 3.0 mg/kg/injection, schedule: Q01DX010 (ip), vehicle: carboxymethylcellulose (CMC)) 115 % of control; under setting [11], 107 % of control; under setting [1], 59 % of control and 70 % of control.

These data come from PubChem BioAssay AID234 (DTP/NCI, 2004).
